Measured values reported in PMC10247784, “Physiological activation of human and mouse bitter taste receptors by bile acids” (Communications Biology, 2023).
Like-named read-outs stand apart in the source and are kept apart here.

Biological target: T1, mouse Tas2r117 (Mus musculus, UniProt Q7M715)
T1 construct: expressed in transfected cells; host or cells: HEK293T-Gα16gust44
T1 sequence (Q7M715 1-330): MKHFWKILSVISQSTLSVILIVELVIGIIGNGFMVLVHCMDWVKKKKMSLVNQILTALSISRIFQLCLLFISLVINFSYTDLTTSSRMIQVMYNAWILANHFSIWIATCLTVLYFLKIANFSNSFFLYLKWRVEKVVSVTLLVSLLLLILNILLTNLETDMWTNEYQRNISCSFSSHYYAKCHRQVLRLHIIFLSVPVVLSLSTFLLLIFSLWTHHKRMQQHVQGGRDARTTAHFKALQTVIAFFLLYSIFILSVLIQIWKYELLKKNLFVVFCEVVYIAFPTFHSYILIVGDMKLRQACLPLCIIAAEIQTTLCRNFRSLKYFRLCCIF
Experiment: Calcium imaging assay (FLIPR), HEK293T-Gα16gust44 cells transfected with mouse Tas2r117
Assay type: cell-based
Protocol: This set of bile acids was chosen because of their commercial availability in high purities, their diversity within the class of bile acids and their previous detection and quantitation in human blood. Stock solutions were prepared in DMSO.
As basal growth medium for the HEK293T-Gα16gust44 cell line[17],[59] served Dulbecco’s modified eagle medium (DMEM) (Thermo Fisher Scientific, Darmstadt, Germany) supplemented with 10 % fetal bovine serum (Sigma-Aldrich, Steinheim, Germany), 2 mM L-glutamine (Sigma-Aldrich, Steinheim, Germany), 100 units/ml penicillin (Sigma Aldrich, Steinheim, Germany) and 100 µg/ml streptomycin (Sigma Aldrich, Steinheim, Germany). Growth conditions were 37 °C, 5 % CO2 and saturated air-humidity[60].
HEK293T-Gα16gust44 cells were seeded on poly-D-lysine (10 µg/ml) coated 96-well plates to reach a confluence of 40-60 % the next day. For transient transfection 150 ng of plasmid DNA containing the receptor of interest and 0.3 µl lipofectamine 2000 (Thermo Fisher Scientific, Darmstadt, Germany) per well were used and transfection took place according to the manual of lipofectamine 2000. […] The empty vector DNA (mock) was transfected as negative control[14],[41].
Cells were loaded using the calcium-sensitive fluorescent dye Fluo-4-AM (Abcam, Cambridge, Great Britain) in the presence of 2.5 mM probenecid (Sigma-Aldrich, Steinheim, Germany) the day after transfection[13],[41]. 1 h after loading, cells were washed with C1 buffer using a BioTek Cell Washer, incubated in the dark for half an hour and washed again. For automated agonist application and measurement of fluorescence changes, a FLIPR^TETRA device (Molecular Devices, San José, United States) was used. Viability of cells was tested by application of 100 nM Somatostatin 14 (Bachem, Bubendorf, Switzerland)[42].
Measured data were negative control corrected by subtracting the signal of the mock-transfected cells and exported to Microsoft Excel using the FLIPR software ScreenWorks 4.2. In Microsoft Excel software, standardization of maximum fluorescence intensities to the basal fluorescence and normalization to the buffer-only control was done to calculate the relative fluorescence changes (ΔF/F).
Initial screening experiments performed in duplicate wells were confirmed by at least one replication and representative traces were selected for display. All dose-response relationships were determined by three independent experiments (biological replicates) performed in duplicates (technical replicates). Threshold concentrations, defined as lowest substance concentrations leading to statistically significant elevated fluorescence changes in receptor-transfected cells compared with empty vector-transfected cells, were determined using SigmaPlot with Student’s t-test to evaluate statistical significance (p < 0.01).

Molecule `C[C@H](CCC(=O)O)[C@H]1CC[C@H]2[C@@H]3[C@H](O)C[C@@H]4C[C@H](O)CC[C@]4(C)[C@H]3C[C@H](O)[C@]12C` [Cholic Acid, cholic acid] has an EC50 of 20.6 ± 5.1 µM, an RLU of 487.07 RLU and an RLU (Time (s) 0, sheet Tas2r117, time trace) of 0 RLU. For the same molecule, the RLU (Time (s) 2, sheet Tas2r117, time trace) was 4.604 RLU, the RLU (Time (s) 4, sheet Tas2r117, time trace) was 10.2904 RLU and the RLU (Time (s) 6, sheet Tas2r117, time trace) was -0.8806 RLU. The RLU (Time (s) 8, sheet Tas2r117, time trace) was 6.861 RLU, the RLU (Time (s) 12, sheet Tas2r117, time trace) was -14.1517 RLU and the RLU (Time (s) 14, sheet Tas2r117, time trace) was 7.665 RLU. The RLU (Time (s) 16, sheet Tas2r117, time trace) was -9.341 RLU, the RLU (Time (s) 18, sheet Tas2r117, time trace) was -12.0783 RLU and the RLU (Time (s) 18.797, sheet Tas2r117, time trace) was -24.6076 RLU. For the same molecule, the RLU (Time (s) 20.797, sheet Tas2r117, time trace) was -3.383 RLU, the RLU (Time (s) 22.797, sheet Tas2r117, time trace) was 39.9085 RLU and the RLU (Time (s) 24.797, sheet Tas2r117, time trace) was 65.6016 RLU. It also gave an RLU (Time (s) 26.797, sheet Tas2r117, time trace) of 75.6489 RLU, an RLU (Time (s) 28.797, sheet Tas2r117, time trace) of 128.888 RLU and an RLU (Time (s) 30.797, sheet Tas2r117, time trace) of 168.759 RLU. For the same molecule, the RLU (Time (s) 32.797, sheet Tas2r117, time trace) was 221.976 RLU, the RLU (Time (s) 34.797, sheet Tas2r117, time trace) was 270.035 RLU and the RLU (Time (s) 36.797, sheet Tas2r117, time trace) was 288.662 RLU. It also gave an RLU (Time (s) 38.797, sheet Tas2r117, time trace) of 310.785 RLU, an RLU (Time (s) 40.797, sheet Tas2r117, time trace) of 342.959 RLU and an RLU (Time (s) 42.797, sheet Tas2r117, time trace) of 363.04 RLU. The RLU (Time (s) 44.797, sheet Tas2r117, time trace) was 380.411 RLU, the RLU (Time (s) 46.797, sheet Tas2r117, time trace) was 395.355 RLU and the RLU (Time (s) 48.797, sheet Tas2r117, time trace) was 398.151 RLU. The RLU (Time (s) 50.797, sheet Tas2r117, time trace) was 423.224 RLU, the RLU (Time (s) 52.797, sheet Tas2r117, time trace) was 441.862 RLU and the RLU (Time (s) 54.797, sheet Tas2r117, time trace) was 446.522 RLU. It also gave an RLU (Time (s) 56.797, sheet Tas2r117, time trace) of 453.199 RLU, an RLU (Time (s) 58.797, sheet Tas2r117, time trace) of 444.318 RLU and an RLU (Time (s) 60.797, sheet Tas2r117, time trace) of 456.236 RLU. The RLU (Time (s) 62.797, sheet Tas2r117, time trace) was 461.012 RLU, the RLU (Time (s) 64.797, sheet Tas2r117, time trace) was 474.623 RLU and the RLU (Time (s) 66.797, sheet Tas2r117, time trace) was 445.559 RLU. It also gave an RLU (Time (s) 70.797, sheet Tas2r117, time trace) of 480.113 RLU, an RLU (Time (s) 72.797, sheet Tas2r117, time trace) of 466.131 RLU and an RLU (Time (s) 74.797, sheet Tas2r117, time trace) of 473.506 RLU. The RLU (Time (s) 76.797, sheet Tas2r117, time trace) was 498.186 RLU, the RLU (Time (s) 78.797, sheet Tas2r117, time trace) was 506.034 RLU and the RLU (Time (s) 80.797, sheet Tas2r117, time trace) was 507.589 RLU. It also gave an RLU (Time (s) 82.797, sheet Tas2r117, time trace) of 514.994 RLU, an RLU (Time (s) 84.797, sheet Tas2r117, time trace) of 484.679 RLU and an RLU (Time (s) 86.797, sheet Tas2r117, time trace) of 500.585 RLU. It also gave an RLU (Time (s) 88.797, sheet Tas2r117, time trace) of 496.095 RLU, an RLU (Time (s) 90.797, sheet Tas2r117, time trace) of 517.962 RLU and an RLU (Time (s) 92.797, sheet Tas2r117, time trace) of 513.104 RLU. For the same molecule, the RLU (Time (s) 94.797, sheet Tas2r117, time trace) was 501.803 RLU, the RLU (Time (s) 96.797, sheet Tas2r117, time trace) was 495.693 RLU and the RLU (Time (s) 98.797, sheet Tas2r117, time trace) was 496.063 RLU. The RLU (Time (s) 100.797, sheet Tas2r117, time trace) was 476.828 RLU, the RLU (Time (s) 102.797, sheet Tas2r117, time trace) was 478.659 RLU and the RLU (Time (s) 104.797, sheet Tas2r117, time trace) was 493.353 RLU. It also gave an RLU (Time (s) 106.797, sheet Tas2r117, time trace) of 481.214 RLU, an RLU (Time (s) 108.797, sheet Tas2r117, time trace) of 477.549 RLU and an RLU (Time (s) 110.797, sheet Tas2r117, time trace) of 489.03 RLU. The RLU (Time (s) 112.797, sheet Tas2r117, time trace) was 467.178 RLU, the RLU (Time (s) 114.797, sheet Tas2r117, time trace) was 460.468 RLU and the RLU (Time (s) 116.797, sheet Tas2r117, time trace) was 475.775 RLU. It also gave an RLU (Time (s) 118.797, sheet Tas2r117, time trace) of 475.734 RLU, an RLU (Time (s) 120.797, sheet Tas2r117, time trace) of 478.85 RLU and an RLU (Time (s) 122.797, sheet Tas2r117, time trace) of 455.77 RLU. The RLU (Time (s) 124.797, sheet Tas2r117, time trace) was 448.646 RLU, the RLU (Time (s) 126.797, sheet Tas2r117, time trace) was 473.935 RLU and the RLU (Time (s) 128.797, sheet Tas2r117, time trace) was 443.919 RLU. The RLU (Time (s) 130.797, sheet Tas2r117, time trace) was 439.491 RLU, the RLU (Time (s) 132.797, sheet Tas2r117, time trace) was 446.634 RLU and the RLU (Time (s) 134.797, sheet Tas2r117, time trace) was 438.919 RLU. For the same molecule, the RLU (Time (s) 136.797, sheet Tas2r117, time trace) was 440.652 RLU, the RLU (Time (s) 137.562, sheet Tas2r117, time trace) was 432.872 RLU and the RLU (Time (s) 143.578, sheet Tas2r117, time trace) was 412.03 RLU. The RLU (Time (s) 149.578, sheet Tas2r117, time trace) was 376.064 RLU, the RLU (Time (s) 155.578, sheet Tas2r117, time trace) was 372.116 RLU and the RLU (Time (s) 161.578, sheet Tas2r117, time trace) was 346.14 RLU. The RLU (Time (s) 167.578, sheet Tas2r117, time trace) was 348.952 RLU, the RLU (Time (s) 173.578, sheet Tas2r117, time trace) was 334.535 RLU and the RLU (Time (s) 179.578, sheet Tas2r117, time trace) was 329.157 RLU. For the same molecule, the RLU (Time (s) 191.578, sheet Tas2r117, time trace) was 289.619 RLU, the RLU (Time (s) 197.578, sheet Tas2r117, time trace) was 289.013 RLU and the RLU (Time (s) 209.578, sheet Tas2r117, time trace) was 239.803 RLU. It also gave an RLU (Time (s) 221.578, sheet Tas2r117, time trace) of 142.758 RLU, an RLU (Time (s) 233.578, sheet Tas2r117, time trace) of 144.622 RLU and an RLU (Time (s) 239.578, sheet Tas2r117, time trace) of 165.061 RLU. For the same molecule, the RLU (Time (s) 245.578, sheet Tas2r117, time trace) was 139.32 RLU, the RLU (Time (s) 293.578, sheet Tas2r117, time trace) was 116.805 RLU and the RLU (Time (s) 299.578, sheet Tas2r117, time trace) was 113.227 RLU. For the same molecule, the RLU (Time (s) 305.578, sheet Tas2r117, time trace) was 94.7752 RLU, the RLU (Time (s) 311.578, sheet Tas2r117, time trace) was 118.792 RLU and the RLU (Time (s) 317.578, sheet Tas2r117, time trace) was 98.6072 RLU. The RLU (Time (s) 323.578, sheet Tas2r117, time trace) was 115.27 RLU, the RLU (Time (s) 329.578, sheet Tas2r117, time trace) was 87.0157 RLU and the RLU (Time (s) 335.578, sheet Tas2r117, time trace) was 73.721 RLU. The RLU (Time (s) 341.578, sheet Tas2r117, time trace) was 98.5271 RLU, the RLU (Time (s) 347.578, sheet Tas2r117, time trace) was 75.5864 RLU and the RLU (Time (s) 353.578, sheet Tas2r117, time trace) was 82.9151 RLU. The RLU (Time (s) 359.578, sheet Tas2r117, time trace) was 69.2265 RLU and the “Activation threshold concentration Tas2r117” value (p < 0.01 vs empty vector) was 10 µM.
